# Measurements from US20230031406A1, “COMPOUNDS AND COMPOSITIONS FOR TREATING CONDITIONS ASSOCIATED WITH NLRP ACTIVITY” (Novartis AG, priority 2018, published 2023).
# Where two headings read alike, the source gives them in different places.
# Tested on: PMA-differentiated THP-1 cells
# Assay: IL-1β production in PMA-differentiated THP-1 cells stimulated with gramicidin (hTHP-1 assay containing 2% fetal bovine serum; Procedures 1 and 2)
# Assay type: cell-based, human
# Conditions: 2% fetal bovine serum
# In short: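 Human monocytic THP-1 cells, matured overnight with PMA at 20 ng/ml, are seeded in low-serum (2% FBS) RPMI. Test compounds, at final concentrations from 100 down to 0.0017 μM, precede gramicidin (5 μM, 2 h) by one hour. Released IL-1β is then determined by HTRF.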
# [1] = Table B2, class symbols, read-out: hTHP-1 IC50
# [2] = Homo sapiens, THP-1, Table B1, class symbols, read-out: Average IC50 of compounds in hTHP-1 assay: hTHP-1 IC50
# [3] = Homo sapiens, THP-1, Table B1, numeric bounds, read-out: Average IC50 of compounds in hTHP-1 assay: hTHP-1 IC50
# [4] = Table B1, class symbols, read-out: Average IC50 of compounds in hTHP-1 assay: hTHP-1 IC50
# [5] = Homo sapiens, THP-1, Table B2, class symbols, read-out: hTHP-1 IC50
# [6] = Homo sapiens, THP-1, Table B3, hTHP-1 assay, class symbols, read-out: IC50
# [7] = Homo sapiens, THP-1, Table B4, class symbols, read-out: hTHP-1 IC50
compound,measurement,setting,value
"Cc1cc(S(N)(=O)=NC(=O)Nc2c3c(nc4c2CCC4)CCC3)sc1C(C)(C)O (single isomer, unassigned) [Compound 692a, (S) or (R)-N′-((1,2,3,5,6,7-hexahydrodicyclopenta [b,e]pyridin-8-yl)carbamoyl)-5-(2-hydroxypropan-2-yl)-4-methylthiophene-2-sulfonimidamide]",IC50,[1],5 to 30 µM
"NS(=O)(=NC(=O)Nc1c2c(nc3c1CCC31CC1)CCC2)c1ccn(C(F)F)n1 (centres unmarked) [Compound 180, 1-(difluoromethyl)-N′-((1′,5′,6′,7′-tetrahydro-2′H-spiro[cyclopropane-1,3′-dicyclopenta[b,e]pyridin]-8′-yl)carbamoyl)-1H-pyrazole-3-sulfonimidamide]",IC50,[2],1 to 5 µM
"C[C@@H]1CCc2c1nc1c(c2NC(=O)N=S(N)(=O)c2nn(-c3ccccc3)cc2F)CCC1 (single isomer, unassigned) [Example 792, (S) or (R)-4-fluoro-N′-(((R)-3-methyl-1,2,3,5,6,7-hexahydrodicyclopenta[b,e]pyridm-8-yl)carbamoyl)-1-phenyl-1H-pyrazole-3-sulfonimidamide]",IC50,"Homo sapiens, THP-1, Table B4, numeric bounds, read-out: hTHP-1 IC50",> 30 µM
"CC(C)(O)c1ncc(S(N)(=O)=NC(=O)Nc2cc(-c3ccccc3)nc3c2CCC3)s1 (single isomer, unassigned) [Compound 142a, (R) or (S)-2-(2-hydroxy-propan-2-yl)-N′-((2-phenyl-6,7-dihydro-5H-cyclopenta[b]pyridin-4-yl)carbamoyl)thiazole-5-sulfonimidamide]",IC50,[3],> 30 µM
"CC1CCc2c1nc1c(c2NC(=O)N=S(N)(=O)c2sc(C(C)(C)O)nc2CO)CCC1 (single isomer, unassigned) [Compound 168bb, (R,R) or (R,S)-4-(hydroxymethyl)-2-(2-hydroxypropan-2-yl)-N′-((3-methyl-1,2,3,5,6,7-hexahydrodicyclo-penta[b,c]pyridin-8-yl)carbamoyl)thiazole-5-sulfonimidamide]",IC50,[4],1 to 5 µM
"Cc1c(C(F)(F)F)nc2c(c1NC(=O)N=S(N)(=O)c1sc(C(C)(C)O)cc1F)CCC2 (centres unmarked) [Compound 632, 3-Fluoro-5-(2-hydroxypropan-2-yl)-N′-((3-methyl-2-(trifluoromethyl)-6,7-dihydro-5H-cyclopenta[b]pyridin-4-yl)carbamoyl)thiophene-2-sulfonimidamide]",IC50,[5],0.2 to 1 µM
"CCn1cc(F)c(S(N)(=O)=NC(=O)Nc2c(C)c(C(F)(F)F)nc3c2CCC3)n1 (centres unmarked) [Example 597, 1-Ethyl-4-fluoro-N′-((3-methyl-2-(trifluoromethyl)-6,7-dihydro-5H-cyclopenta[b]pyridin-4-yl)calbamoyl)-1H-pyrazole-3-sulfonimidamide]",IC50,[6],0.04 to 0.2 µM
"CC(C)(O)c1ncc(S(N)(=O)=NC(=O)Nc2c3c(nc4c2CCC42CC2)CCC3)s1 (centres unmarked) [Compound 136, 2-(2-hydroxypropan-2-yl)-N′-((1′,5′,6′,7′-tetrahydro-2′H-spiro[cyclopropane-1,3′-dicyclopenta[b,e]pyridin]-8′-yl)carbamoyl)thiazole-5-sulfonimidamide]",IC50,[2],0.04 to 0.2 µM
"CCc1c(C2CC2)nc2c(c1NC(=O)N=S(N)(=O)c1cnc(C(C)(C)O)s1)CCC2 (centres unmarked) [Compound 675, N′-((2-cyclopropyl-3-ethyl-6,7-dihydro-5H-cyclopenta[b]pyridin-4-yl)carbamoyl)-2-(2-hydroxypropan-2-yl)thiazole-5-sulfonimidamide]",IC50,[5],1 to 5 µM
"CC(C)(O)c1cc(Br)c(S(N)(=O)=NC(=O)Nc2c3c(nc4c2CCC4)CCC3)s1 (centres unmarked) [Compound 690, 3-Bromo-N′-((1,2,3,5,6,7-hexahydrodicyclopenta[b,e]pyridin-8-yl)carbamoyl)-5-(2-hydroxypropan-2-yl)thiophene-2-sulfonimidamide]",IC50,[5],1 to 5 µM
"CC(C)(O)c1sc(S(N)(=O)=NC(=O)Nc2c3c(nc4c2CCC4)CCC3)cc1Cl (single isomer, unassigned) [Compound 688a, (R) or (S)-4-Chloro-N′-((1,2,3,5,6,7-hexahydrodicyclopenta [b,e]pyridin-8-yl)carbamoyl)-5-(2-hydroxypropan-2-yl)thiophene-2-sulfonimidamide]",IC50,[1],0.2 to 1 µM
"CC(C)(O)c1csc(S(N)(=O)=NC(=O)Nc2cc(C(F)(F)F)nc3c2CCC3)c1 (single isomer, unassigned) [Example 667, (R) or (S)-4-(2-hydroxypropan-2-yl)-N′-((2-(trifluoromethyl)-6,7-dihydro-5H-cyclopenta[b]pyridin-4-yl)carbamoyl)thiophene-2-sulfonimidamide]",IC50,[6],1 to 5 µM
"CCn1cc(F)c(S(N)(=O)=NC(=O)Nc2c(C)c(C(F)(F)F)nc3c2CCC3)n1 (single isomer, unassigned) [Example 649, (R) or (S)-1-ethyl-4-fluoro-N′-((3-methyl-2-(trifluoromethyl)-6,7-dihydro-5H-cyclopenta[b]pyridin-4-yl)carbamoyl)-1H-pyrazole-3-sulfonimidamide]",IC50,"Table B3, hTHP-1 assay, class symbols, read-out: IC50",0.04 to 0.2 µM
"Cc1c(C2CC2)nc2c(c1NC(=O)N=S(N)(=O)c1ccn(C(F)F)n1)CCC2 (centres unmarked) [Compound 676, N′-((2-cyclopropyl-3-methyl-6,7-dihydro-5H-cyclopenta[b]pyridin-4-yl)carbamoyl)-1-(difluoromethyl)-1H-pyrazole-3-sulfonimidamide]",IC50,[5],1 to 5 µM
"CCC1CCc2c1nc1c(c2NC(=O)N=S(N)(=O)c2sc(C(C)(C)O)cc2F)CCC1 (single isomer, unassigned) [Compound 671c, (R, S) or (R, R) or (S, R) or (S, S)-N′-((3-ethyl-1,2,3,5,6,7-hexahydrodicyclopenta [b,e]pyridin-8-yl)carbamoyl)-3-fluoro-5-(2-hydroxypropan-2-yl) thiophene-2-sulfonimidamide]",IC50,[1],1 to 5 µM
"CC1CCc2c1nc1c(c2NC(=O)N=S(N)(=O)c2cc(C(C)(C)O)cs2)CCC1C (single isomer, unassigned) [Compound 131e, (S,S,S) or (S,R,S) and (S,S,R) or (S,R,R)-N′-((3,5-dimethyl-1,2,3,5,6,7-hexahydro-dicyclopenta[b,e]pyridin-8-yl)carbamoyl)-4-(2-hydroxypropan-2-yl)thio-phene-2-sulfonimidamide]",IC50,[4],5 to 30 µM
"CC(C)(O)c1ncc(S(N)(=O)=NC(=O)Nc2c3c(nc4c2CCC4F)CCC3)s1 (single isomer, unassigned) [Compound 183b, (S,S) or (S,R)-N′-((3-fluoro-1,2,3,5,6,7-hexahydrodicyclo-penta[b,e]pyridin-8-yl)carbamoyl)-2-(2-hydroxypropan-2-yl)thiazole-5-sulfonimidamide]",IC50,[3],> 30 µM
"NS(=O)(=NC(=O)Nc1c2c(nc3c1CCC3)CCC2)c1nn(C(F)F)cc1F (single isomer, unassigned) [Example 759, (R) or (S)-1-(difluoromethyl)-4-fluoro-N′-((1,2,3,5,6,7-hexahydrodicyclopenta[b,e]pyridin-8-yl)carbamoyl)-1H-pyrazole-3-sulfonimidamide]",IC50,[7],0.2 to 1 µM
"CC(C)(O)c1sc(S(N)(=O)=NC(=O)Nc2c3c(nc4c2CCC4)CCC3)cc1F (centres unmarked) [Compound 177, 4-fluoro-N′-((1,2,3,5,6,7-hexahydrodicyclopenta[b,e]pyridin-8-yl)carbamoyl)-5-(2-hydroxypropan-2-yl)thiophene-2-sulfonimidamide]",IC50,[2],5 to 30 µM
"NS(=O)(=NC(=O)Nc1c2c(nc(C3CC3)c1C1CC1)CCC2)c1nn(C(F)F)cc1F (single isomer, unassigned) [Example 764, (S) or (R)-N′-((2,3-dicyclopropyl-6,7-dihydro-5H-cyclopenta[b]pyridin-4-yl)carbamoyl)-1-(difluoromethyl)-4-fluoro-1H-pyrazole-3-sulfonimidamide]",IC50,"Table B4, class symbols, read-out: hTHP-1 IC50",5 to 30 µM
C[C@@](O)(CO)c1cc(F)c(S(N)(=O)=NC(=O)Nc2c3c(nc4c2CCC42CC2)CCC3)s1 (some centres unmarked) [Compound 716b],IC50,[5],0.2 to 1 µM
"CC(C)(O)c1cc(S(N)(=O)=NC(=O)Nc2c3c(nc4c2CCC4(C)C)CCC3)nn1-c1ccccc1 (single isomer, unassigned) [Compound 663a, (S) or (R)-N′-((3,3-dimethyl-1,2,3,5,6,7-hexahydrodicyclopenta [b,e]pyridin-8-yl)carbamoyl)-5-(2-hydroxypropan-2-yl)-1-phenyl-1H-pyrazole-3-sulfonimidamide]",IC50,"Homo sapiens, THP-1, Table B2, numeric bounds, read-out: hTHP-1 IC50",> 30 µM
"C[C@@H]1CCc2c1nc1c(c2NC(=O)N=S(N)(=O)c2cnc([C@](C)(O)CO)s2)CCC1 (single isomer, unassigned) [Example 731]",IC50,[7],0.04 to 0.2 µM
"NS(=O)(=NC(=O)Nc1c2c(nc3c1CCC31CC1)CCC2)c1ccn(C(F)F)n1 (single isomer, unassigned) [Compound 180a, (R) or (S)-1-(difluoromethyl)-N′-((1′,5′,6′,7′-tetrahydro-2′H-spiro[cyclopropane-1,3′-dicyclopenta[b,e]pyridin]-8′-yl)carbamoyl)-1H-pyrazole-3-sulfonimidamide]",IC50,[2],0.2 to 1 µM
"CC(C)(O)c1sc(S(N)(=O)=NC(=O)Nc2c3c(nc4c2CCC4)CCC3)cc1F (single isomer, unassigned) [Compound 678a, (R) or (S)-4-Fluoro-N′-((1,2,3,5,6,7-hexahydrodicyclopenta [b,e]pyridin-8-yl)carbamoyl)-5-(2-hydroxypropan-2-yl)thiophene-2-sulfonimidamide]",IC50,[5],1 to 5 µM
"Cc1c(C2CC2)nc2c(c1NC(=O)N=S(N)(=O)c1nc(C(C)(C)O)cs1)CCC2 (single isomer, unassigned) [Compound 626a]",IC50,[1],5 to 30 µM
